pIC50: −log10 of the molar value. Converted amounts (≈) assume the structure as drawn. “And” between values parts separate entries of the source, which are not always exact repeats. Equal entries are not always repeated.
Experiments:
K. pneumoniae BAA 2784 = assay: microbe, parasite or virus in culture; type: cell-based; settings: Klebsiella pneumoniae, BAA2784
[1] = biological target: S. aureus topoisomerase IV (Staphylococcus aureus, UniProt P0C1S7+P0C1U9); assay: biochemical; set-up: Topo IV decatenation inhibition response: unit not given here
Method: Assays with P. aeruginosa topoisomerase IV (3 nM) were conducted in a similar buffer but with 50 mM HEPES-KOH (pH 7.9), 100 mM potassium glutamate, 6 mM magnesium acetate, 6 mM DTT, 1 mM ATP, 2 mM spermidine, and 50 μg/mL albumin. For S. aureus topoisomerase IV assay, the reactions contained 4 nM enzyme in an assay buffer composed of 50 mM Tris-HCl (pH 7.5), 5 mM MgCl₂, 5 mM DTT, 1.5 mM ATP, 350 mM potassium glutamate, and 0.05 mg/mL albumin. The procedures followed were consistent with those used in the supercoiling assays. Decatenated minicircles were resolved on 0.8% agarose gels, while the kDNA substrate remained in the wells. Gels were stained with 0.8 μg/mL ethidium bromide solution for 10 min, followed by destaining. DNA bands were visualized using a gel documentation system, and compound inhibition analysis was carried out using the same procedures described for the supercoiling assays.

E. cloacae = settings: ref 6 (Hameed P et al., 2024); cited from earlier work
[2] = biological target: E. coli GyrA D82N mutant gyrase (Escherichia coli, UniProt P0AES4+P0AES6, D82N); assay: biochemical; type: biochemical; settings: for Gyrase supercoiling inhibition response: GyrA D82N gyrase
E. coli BAA 2469 = assay: microbe, parasite or virus in culture; type: cell-based; settings: Escherichia coli, BAA2469
S. aureus gyrase = S. aureus gyrase (Staphylococcus aureus, UniProt P0A0K8+P20831); assay: biochemical
A. baumannii = tested on: A. baumannii; set-up: method as in ref 6 (Hameed P et al., 2024); settings: ref 6 (Hameed P et al., 2024); cited from earlier work
K. pneumoniae KPNIH1 = assay: microbe, parasite or virus in culture; type: cell-based; settings: Klebsiella pneumoniae
E. coli tolC strain = assay: MIC, efflux-deficient strain; type: cell-based
E. coli BAA 2471 = assay: microbe, parasite or virus in culture; type: cell-based; settings: Escherichia coli, BAA2471
Human topo IIß = Human topo IIß (Homo sapiens, UniProt Q02880); assay: Human topo IIß decatenation assay; type: biochemical
Method: Human topo IIα (0.9 nM) and topo IIß (2.2 nM) decatenation assays were performed following the same protocol used for bacterial topoisomerase IV decatenation assays. The assay buffer was made of 50 mM Tris. HCl (pH 7.5), 125 mM NaCl, 10 mM MgCl2, 5 mM DTT, and 100 μg/mL albumin.

P. aeruginosa = tested on: P. aeruginosa; set-up: method as in ref 6 (Hameed P et al., 2024); settings: ref 6 (Hameed P et al., 2024); cited from earlier work
P. aeruginosa ATCC 27853 = settings: 4× MIC
Method: Spontaneous resistance frequencies to BWC0977 were evaluated in E. coli ATCC 25922, P. aeruginosa ATCC 27853, and A. baumannii ATCC 19606. Mid-logarithmic phase cultures (~10^9 CFU/mL) were plated onto Luria-Bertani agar containing BWC0977 at 4×, 8×, and 16× the respective MICs. Plates were incubated at 37 °C for 24–36 h, and resistance frequencies were estimated by counting colony-forming units (CFUs) on the drug-containing plates. MICs of the isolated colonies were determined, and the gyrA, gyrB, parC, and parE genes were sequenced to assess for target-site mutations.

E. coli = settings: ref 6 (Hameed P et al., 2024); cited from earlier work

Compound: Cn1c(=O)ccc2ccc(F)c(CCNC[C@H]3CN(c4cnc5c(n4)NC(=O)CO5)C(=O)O3)c21 [BWC0977]
- MIC (K. pneumoniae BAA 2784): 0.125 µg/mL (≈ 0.267 µM)
- pIC50 [1]: 6.96
- inhibition at 0.0037 µM ([1]; S. aureus topo IV, compound 0.0037 μM, source data Fig 2C, read-out: Topo IV decatenation inhibition response): 0%
- Topo IV decatenation inhibition response ([1]; S. aureus topo IV, compound 0.0988 μM, source data Fig 2C, listed as 977, 0.0988 µM): 31.67 and 43.21 and 56.17
- Topo IV decatenation inhibition response ([1]; S. aureus topo IV, compound 0.2963 μM, source data Fig 2C, listed as 977, 0.2963 µM): 76.23 and 76.66
- inhibition at 0.2963 µM ([1]; S. aureus topo IV, compound 0.2963 μM, source data Fig 2C, read-out: Topo IV decatenation inhibition response): 67%
- Topo IV decatenation inhibition response ([1]; S. aureus topo IV, compound 0.8889 μM, source data Fig 2C, listed as 977, 0.8889 µM): 92.92 and 90.9
- inhibition at 0.8889 µM ([1]; S. aureus topo IV, compound 0.8889 μM, source data Fig 2C, read-out: Topo IV decatenation inhibition response): 89.7%
- inhibition at 2.6667 µM ([1]; S. aureus topo IV, compound 2.6667 μM, source data Fig 2C, read-out: Topo IV decatenation inhibition response): 98.1%
- Topo IV decatenation inhibition response ([1]; S. aureus topo IV, compound 8 μM, source data Fig 2C, listed as 977, 8 µM): 99.9 and 99.56
- inhibition at 8 µM ([1]; S. aureus topo IV, compound 8 μM, source data Fig 2C, read-out: Topo IV decatenation inhibition response): 99.7%
- MIC90 against diverse global isolates (E. cloacae): 2 µg/mL (≈ 4.27 µM)
- pIC50 ([2]; Fig. 6, read-out: IC50 D82N gyrase supercoiling): 5.09
- Gyrase supercoiling inhibition response ([2]; compound 4.444 µM, source data Fig 6A/6B, 4.444 µM): 46.06 and 47.14
- Gyrase supercoiling inhibition response ([2]; compound 13.333 µM, source data Fig 6A/6B, 13.333 µM): 41.37 and 59.15 and 62.03
- Gyrase supercoiling inhibition response ([2]; compound 40 µM, source data Fig 6A/6B, 40 µM): 73.59 and 74.94
- Gyrase supercoiling inhibition response ([2]; compound 120 µM, source data Fig 6A/6B, 120 µM): 87.19 and 87.16
- reduction in inhibition potency compared to wildtype gyrase ([2]; GyrA D82N vs WT): > 500 fold
- inhibition at 4.444 µM ([2]; read-out: Gyrase supercoiling inhibition response, GyrA D82N gyrase, compound 4.444 µM, source data Fig 6A/6B): 30.7%
- inhibition at 40 µM ([2]; read-out: Gyrase supercoiling inhibition response, GyrA D82N gyrase, compound 40 µM, source data Fig 6A/6B): 55.7%
- inhibition at 120 µM ([2]; read-out: Gyrase supercoiling inhibition response, GyrA D82N gyrase, compound 120 µM, source data Fig 6A/6B): 78.8%
- MIC (E. coli BAA 2469): 0.01 µg/mL (≈ 0.0213 µM)
- Gyrase supercoiling inhibition response (S. aureus gyrase; S. aureus gyrase, compound 0.0002 μM, source data Fig 2C, listed as 977, 0.0002 µM): 1.69 and 1.99
- inhibition at 0.0002 µM (S. aureus gyrase; S. aureus gyrase, compound 0.0002 μM, source data Fig 2C, read-out: Gyrase supercoiling inhibition response): 2.89%
- Gyrase supercoiling inhibition response (S. aureus gyrase; S. aureus gyrase, compound 0.001 μM, source data Fig 2C, listed as 977, 0.001 µM): 21.39 and 19.98
- inhibition at 0.001 µM (S. aureus gyrase; S. aureus gyrase, compound 0.001 μM, source data Fig 2C, read-out: Gyrase supercoiling inhibition response): 26.9%
- Gyrase supercoiling inhibition response (S. aureus gyrase; S. aureus gyrase, compound 0.004 μM, source data Fig 2C, listed as 977, 0.004 µM): 39.52 and 42.6
- inhibition at 0.004 µM (S. aureus gyrase; S. aureus gyrase, compound 0.004 μM, source data Fig 2C, read-out: Gyrase supercoiling inhibition response): 46.8%
- Gyrase supercoiling inhibition response (S. aureus gyrase; S. aureus gyrase, compound 0.012 μM, source data Fig 2C, listed as 977, 0.012 µM): 60.4 and 63.65
- inhibition at 0.012 µM (S. aureus gyrase; S. aureus gyrase, compound 0.012 μM, source data Fig 2C, read-out: Gyrase supercoiling inhibition response): 57.6%
- Gyrase supercoiling inhibition response (S. aureus gyrase; S. aureus gyrase, compound 0.037 μM, source data Fig 2C, listed as 977, 0.037 µM): 62.46 and 64.07
- inhibition at 0.037 µM (S. aureus gyrase; S. aureus gyrase, compound 0.037 μM, source data Fig 2C, read-out: Gyrase supercoiling inhibition response): 66.3%
- Gyrase supercoiling inhibition response (S. aureus gyrase; S. aureus gyrase, compound 0.111 μM, source data Fig 2C, listed as 977, 0.111 µM): 73.28 and 76.49
- inhibition at 0.111 µM (S. aureus gyrase; S. aureus gyrase, compound 0.111 μM, source data Fig 2C, read-out: Gyrase supercoiling inhibition response): 70.2%
- Gyrase supercoiling inhibition response (S. aureus gyrase; S. aureus gyrase, compound 0.333 μM, source data Fig 2C, listed as 977, 0.333 µM): 87.57 and 81.68
- inhibition at 0.333 µM (S. aureus gyrase; S. aureus gyrase, compound 0.333 μM, source data Fig 2C, read-out: Gyrase supercoiling inhibition response): 84%
- Gyrase supercoiling inhibition response (S. aureus gyrase; S. aureus gyrase, compound 1 μM, source data Fig 2C, listed as 977, 1 µM): 89.66 and 78.1
- inhibition at 1 µM (S. aureus gyrase; S. aureus gyrase, compound 1 μM, source data Fig 2C, read-out: Gyrase supercoiling inhibition response): 91.1%
- Gyrase supercoiling inhibition response (S. aureus gyrase; S. aureus gyrase, compound 3 μM, source data Fig 2C, listed as 977, 3 µM): 98.25 and 99.54
- inhibition at 3 µM (S. aureus gyrase; S. aureus gyrase, compound 3 μM, source data Fig 2C, read-out: Gyrase supercoiling inhibition response): 94.8%
- pIC50 (S. aureus gyrase; Supplementary Fig 1G): 8.05
- MIC90 against diverse global isolates (A. baumannii): 1 µg/mL (≈ 2.13 µM)
- MIC (K. pneumoniae KPNIH1): 1 µg/mL (≈ 2.13 µM)
- difference in MICs between tolC strain and wild-type strain (E. coli tolC strain): 10 fold
- MIC (E. coli tolC strain; Escherichia coli): 0.001 µg/mL (≈ 0.00213 µM)
- MIC (E. coli BAA 2471): 0.5 µg/mL (≈ 1.07 µM)
- pIC50 (Human topo IIß): < 3.70
- MIC90 against diverse global isolates (P. aeruginosa): 1 µg/mL (≈ 2.13 µM)
- resistance frequency (P. aeruginosa ATCC 27853): less than 1 × 10^−9
- MIC90 against diverse global isolates (E. coli): 0.5 µg/mL (≈ 1.07 µM)
